From US11547697B2, “Heterocyclic compounds and uses thereof” (MILLENNIUM PHARMACEUTICALS, INC., priority 2009, dated 2023)
Read-outs that look alike come from different tables or passages of the source.

What was measured:
p110γ = p110γ (Homo sapiens (Human), UniProt P48736); test: PI 3-Kinase (human) HTRF assay, p110γ; format: biochemical; conditions: read-out: PI3K γ IC50
p110α/p85α = p110α/p85α (Homo sapiens (Human), UniProt P42336); test: PI 3-Kinase (human) HTRF assay, p110α/p85α; format: biochemical; conditions: read-out: PI3K α IC50
p110α/p85α, sequence (P42336 whole entry): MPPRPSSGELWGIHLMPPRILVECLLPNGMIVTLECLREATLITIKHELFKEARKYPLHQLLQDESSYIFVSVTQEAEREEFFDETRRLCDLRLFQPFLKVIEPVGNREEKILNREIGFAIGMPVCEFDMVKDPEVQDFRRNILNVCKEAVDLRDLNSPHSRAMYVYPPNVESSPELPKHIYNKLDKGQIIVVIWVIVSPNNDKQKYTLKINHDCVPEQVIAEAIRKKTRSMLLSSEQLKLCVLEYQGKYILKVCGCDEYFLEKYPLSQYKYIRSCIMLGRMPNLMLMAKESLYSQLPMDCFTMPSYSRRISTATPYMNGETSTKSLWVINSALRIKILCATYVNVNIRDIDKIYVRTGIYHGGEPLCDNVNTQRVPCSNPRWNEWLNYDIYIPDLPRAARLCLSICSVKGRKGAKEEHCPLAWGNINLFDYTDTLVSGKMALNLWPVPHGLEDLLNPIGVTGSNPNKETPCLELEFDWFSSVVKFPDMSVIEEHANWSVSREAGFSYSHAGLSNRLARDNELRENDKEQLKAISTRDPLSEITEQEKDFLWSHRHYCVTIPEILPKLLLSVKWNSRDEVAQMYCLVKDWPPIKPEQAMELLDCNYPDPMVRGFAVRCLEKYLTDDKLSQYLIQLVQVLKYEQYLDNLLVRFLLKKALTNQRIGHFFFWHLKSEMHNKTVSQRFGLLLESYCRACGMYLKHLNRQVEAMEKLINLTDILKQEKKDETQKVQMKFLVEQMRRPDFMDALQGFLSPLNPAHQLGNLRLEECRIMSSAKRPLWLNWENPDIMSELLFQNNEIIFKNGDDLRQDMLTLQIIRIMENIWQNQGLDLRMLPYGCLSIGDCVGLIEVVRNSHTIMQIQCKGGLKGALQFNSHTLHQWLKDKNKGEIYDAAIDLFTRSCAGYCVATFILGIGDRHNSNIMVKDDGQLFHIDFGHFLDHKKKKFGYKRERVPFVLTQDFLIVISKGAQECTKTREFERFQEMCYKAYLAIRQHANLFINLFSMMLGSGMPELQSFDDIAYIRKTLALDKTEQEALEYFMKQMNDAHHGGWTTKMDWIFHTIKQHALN
p110α/p85α, sequence (P27986 whole entry partner): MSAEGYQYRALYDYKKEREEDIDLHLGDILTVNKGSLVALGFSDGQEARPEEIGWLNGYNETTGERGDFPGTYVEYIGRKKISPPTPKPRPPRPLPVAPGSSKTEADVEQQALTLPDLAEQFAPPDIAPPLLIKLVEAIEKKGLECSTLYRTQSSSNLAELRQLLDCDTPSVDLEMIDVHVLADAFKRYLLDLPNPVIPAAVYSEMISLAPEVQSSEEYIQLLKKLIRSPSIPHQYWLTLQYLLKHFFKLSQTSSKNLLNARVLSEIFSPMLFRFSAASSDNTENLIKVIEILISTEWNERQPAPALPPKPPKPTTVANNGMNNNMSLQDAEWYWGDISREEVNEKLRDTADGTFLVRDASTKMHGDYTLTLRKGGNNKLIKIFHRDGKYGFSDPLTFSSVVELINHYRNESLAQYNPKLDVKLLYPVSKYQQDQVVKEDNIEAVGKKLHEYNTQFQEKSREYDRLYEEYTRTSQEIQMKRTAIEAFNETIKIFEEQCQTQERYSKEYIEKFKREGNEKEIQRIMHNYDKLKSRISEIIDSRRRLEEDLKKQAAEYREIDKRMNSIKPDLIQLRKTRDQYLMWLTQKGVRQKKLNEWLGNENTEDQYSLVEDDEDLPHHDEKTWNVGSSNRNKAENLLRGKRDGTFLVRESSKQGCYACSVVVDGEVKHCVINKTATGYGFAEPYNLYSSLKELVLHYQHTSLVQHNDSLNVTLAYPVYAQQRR

p110γ, sequence (P48736 whole entry): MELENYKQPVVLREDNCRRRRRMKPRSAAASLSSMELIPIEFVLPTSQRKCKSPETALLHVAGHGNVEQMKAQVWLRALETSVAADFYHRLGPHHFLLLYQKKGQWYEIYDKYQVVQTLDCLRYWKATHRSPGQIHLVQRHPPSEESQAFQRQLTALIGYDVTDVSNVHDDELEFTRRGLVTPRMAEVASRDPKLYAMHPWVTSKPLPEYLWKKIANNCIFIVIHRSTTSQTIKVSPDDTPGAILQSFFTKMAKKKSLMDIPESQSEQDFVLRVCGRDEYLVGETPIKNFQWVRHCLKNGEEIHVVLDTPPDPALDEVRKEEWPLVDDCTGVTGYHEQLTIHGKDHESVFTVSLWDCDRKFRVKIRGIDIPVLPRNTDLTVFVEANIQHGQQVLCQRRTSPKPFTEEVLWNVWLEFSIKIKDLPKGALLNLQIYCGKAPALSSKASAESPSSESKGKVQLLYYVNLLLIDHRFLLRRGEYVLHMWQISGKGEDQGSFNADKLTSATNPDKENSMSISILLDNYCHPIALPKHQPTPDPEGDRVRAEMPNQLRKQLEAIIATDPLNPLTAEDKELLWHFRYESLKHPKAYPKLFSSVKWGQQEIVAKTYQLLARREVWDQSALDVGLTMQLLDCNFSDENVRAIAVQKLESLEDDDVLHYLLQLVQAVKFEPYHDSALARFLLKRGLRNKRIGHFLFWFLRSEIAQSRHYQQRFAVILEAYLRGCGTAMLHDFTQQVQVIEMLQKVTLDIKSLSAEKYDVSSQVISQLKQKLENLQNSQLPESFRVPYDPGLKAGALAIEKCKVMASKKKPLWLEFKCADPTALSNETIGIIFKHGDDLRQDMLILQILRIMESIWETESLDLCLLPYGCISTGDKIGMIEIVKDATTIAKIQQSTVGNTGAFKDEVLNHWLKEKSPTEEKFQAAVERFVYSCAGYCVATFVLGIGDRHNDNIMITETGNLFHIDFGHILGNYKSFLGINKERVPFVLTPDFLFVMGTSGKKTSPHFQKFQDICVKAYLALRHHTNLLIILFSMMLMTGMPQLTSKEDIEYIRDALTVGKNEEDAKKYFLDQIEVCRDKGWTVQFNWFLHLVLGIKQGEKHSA

Structure (SMILES) | IC50 (p110γ) [µM] | IC50 (p110α/p85α) [µM] | IC50 (p110α/p85α; in vitro) [µM] | IC50 (p110γ; in vitro) [µM]
Nc1noc2ccc(-c3ccc4nccc(-c5ccncc5)c4c3)cc12 [compound 18] | < 10 | < 10 |  | 
Nc1nc2cc(-c3c[nH]c4nccc(-c5ccncc5)c34)ccc2o1 [compound 25] | < 10 | < 10 |  | 
Nc1nc2cc(-c3ccc4nccc(NC5CCOCC5)c4c3)ccc2o1 [compound 32] | < 10 | < 10 |  | 
Nc1nc2cc(-c3ccc4ncc(N5CCOCC5)n4c3)ccc2o1 [compound 53] |  | < 10 |  | 
Nc1nc2ccc(-c3ccc4ncn(C5CCOCC5)c(=O)c4c3)cc2o1 [compound 63] |  | < 10 |  | 
Cn1c(N2CCOCC2)nc2cc(-c3ccc4oc(N)nc4c3)ccc2c1=O [compound 80] |  | < 1 |  | 
Nc1nc2cc(-c3ccc4ncc(C(=O)N5CCOCC5)cc4c3)ccc2o1 [compound 97] |  | < 10 |  | 
Nc1nc2cc(-c3ccc4ncc(C(=O)N5CCS(=O)(=O)CC5)n4c3)ccc2o1 [compound 107] | < 10 | < 1 |  | 
CN1CCN(C(=O)c2cnc3cnc(-c4ccc5oc(N)nc5c4)cn23)CC1 [compound 123] |  | < 10 |  | 
CCN1CCN(C(=O)c2cnc3ccc(-c4ccc5oc(N)nc5c4)cn23)CC1 [compound 141] | < 10 | < 1 |  | 
CC1CN(C(=O)c2cnc3ccc(-c4ccc5oc(N)nc5c4)cn23)CC(C)N1 (stereo not shown) [compound 142] |  | < 10 |  | 
Nc1nc2cc(-c3ccc4ncc(-c5ccnc(N6CCOCC6)c5)nc4c3)ccc2o1 [compound 150] |  | < 1 |  | 
CN1CCN(C(=O)c2cnc3ccc(-c4ccc5oc(N)nc5c4)cc3n2)CC1 [compound 157] |  | < 10 |  | 
Nc1nc2cc(-c3ccc4ncc(C(=O)N5CCC(O)CC5)n4c3)ccc2o1 [compound 162] | < 10 | < 1 |  | 
Nc1nc2cc(-c3ccc4ncc(-c5ccc(N6CCOCC6)nc5)nc4c3)ccc2o1 [compound 167] |  | < 10 |  | 
Nc1nc2cc(-c3ccc4ncc(N5CCCCC5)nc4c3)ccc2o1 [compound 175] | < 10 | < 0.1 |  | 
Nc1nc2cc(-c3ccc4ncc(-c5ccccc5)nc4c3)ccc2o1 [compound 180] |  | < 1 |  | 
Cc1ncccc1-c1cnc2ccc(-c3ccc4oc(N)nc4c3)cc2n1 [compound 185] |  | < 1 |  | 
Nc1nc2cc(-c3ccc4ncn(C5CCC5)c(=O)c4c3)ccc2o1 [compound 205] |  |  | < 0.1 | 
Nc1ncc(-c2cnc3ccc(-c4ccc5oc(N)nc5c4)cc3n2)cn1 [compound 210] |  |  | < 1 | 
Cc1ccn(C2CCN(c3cnc4ccc(-c5ccc6oc(N)nc6c5)cc4n3)CC2)n1 [compound 223] |  |  | < 0.1 | < 1
CCN(CC)CCn1cnc2ccc(-c3ccc4oc(N)nc4c3)cc2c1=O [compound 224] |  |  | < 10 | 
CC(=O)Nc1nc2cc(-c3ccc4oc(N)nc4c3)ccc2s1 [compound 250] |  |  |  | < 0.1

Other lines, results leading:

IC50 (p110γ) [µM] | IC50 (p110α/p85α) [µM] | IC50 (p110α/p85α; in vitro) [µM] | IC50 (p110γ; in vitro) [µM] | Structure (SMILES)
< 1 | < 10 |  |  | Nc1ncnc2ccc(-c3ccc4nccc(-c5ccncc5)c4c3)cc12 [compound 8]
< 10 | < 10 |  |  | Nc1nc2cc(-c3cc4nccc(-c5ccncc5)c4s3)ccc2o1 [compound 14]
 | < 10 |  |  | Nc1nc2cc(-c3ccc4ncn(C5CCOCC5)c4c3)ccc2o1 [compound 48]
 | < 1 |  |  | Nc1nc2cc(-c3ccc4ncn(C5CCOCC5)c(=O)c4c3)ccc2o1 [compound 55]
 | < 10 |  |  | CC(=O)N1CCC(n2cnc3ccc(-c4ccc5oc(N)nc5c4)cc3c2=O)CC1 [compound 66]
 | < 1 |  |  | CS(=O)(=O)N1CCC(n2cnc3ccc(-c4ccc5oc(N)nc5c4)cc3c2=O)CC1 [compound 67]
 | < 10 |  |  | CN1CCN(c2nc3cc(-c4ccc5oc(N)nc5c4)ccc3c(=O)n2C)CC1 [compound 79]
< 0.1 | < 0.1 |  |  | Nc1nc2cc(-c3ccc4ncc(N5CCS(=O)(=O)CC5)nc4c3)ccc2o1 [compound 98]
< 10 | < 10 |  |  | CN1CCN(C(=O)c2cnc3ccc(-c4ccc5oc(N)nc5c4)nn23)CC1 [compound 104]
< 10 | < 10 |  |  | C[C@@H]1CN(C(=O)c2cnc3ccc(-c4ccc5oc(N)nc5c4)cn23)C[C@H](C)O1 [compound 106]
< 1 | < 0.1 |  |  | Nc1nc2ccc(-c3ccc4ncc(N5CCOCC5)nc4c3)cc2s1 [compound 114]
< 10 | < 1 |  |  | C[C@@H]1CN(c2cnc3ccc(-c4ccc5oc(N)nc5c4)cc3n2)C[C@H](C)O1 [compound 132]
 | < 10 |  |  | Nc1nc2cc(-c3ccc4ncc(C(=O)N5CCOCC5)nc4c3)ccc2o1 [compound 158]
< 1 | < 0.1 |  |  | Cc1cn(-c2cnc3ccc(-c4ccc5oc(N)nc5c4)cc3n2)cn1 [compound 177]
< 0.1 | < 0.1 |  |  | Cc1ccc(-c2cnc3ccc(-c4ccc5oc(N)nc5c4)cc3n2)cn1 [compound 194]
 |  | < 0.1 | < 10 | CC(C)n1cnc2ccc(-c3ccc4oc(N)nc4c3)cc2c1=O [compound 206]
 |  |  | < 10 | Nc1ncc(-c2ccc3oc(N)nc3c2)cn1 [compound 233]
